Assays:
[1] = system: E. coli; assay: microbe, parasite or virus in culture; assay type: cell-based, E. coli (ATCC 43894); conditions: Escherichia coli, 24 h, read-out: MIC E. coli
Excerpt: (§1) • Menthol, Guangdong Huaqingyuan Biotechnology Co., Ltd. • Thymol, Guangdong Huaqingyuan Biotechnology Co., Ltd. • Bromoisobutyryl bromide (BiBB), Aldrich • CuBr, Aldrich • N,N,N′,N″,N″-pentamethyldiethylenetriamine (PMDETA), Aldrich • 2-(N,N-dimethylamino)ethyl methacrylate (DMAEMA), Aldrich • Gram-positive 2 bacteria (S. aureus, ATCC 25923), China Center of Industrial Culture, commercially available from Guangdong Huankai Microbial Sci.&Tech. Co., Ltd., Guangdong, China • methicillin-resistant Staphylococcus aureus (ATCC 43300), China Center of Industrial Culture, commercially available from Guangdong Huankai Microbial Sci.&Tech. Co., Ltd., Guangdong, China • Gram-negative bacteria (E. coli, ATCC 43894), China Center of Industrial Culture, commercially available from Guangdong Huankai Microbial Sci.&Tech. Co., Ltd., Guangdong, China.
(§2) MIC (minimum inhibitory concentration) was used as an effective qualitative method of antibacterial ability assessment. MIC of antibacterial polymers were determined against S. aureus and E. coli by a serial dilution method. Bacteria LB agar plates were prepared from glycerol stock. Bacteria were inoculated with LB broth in an inoculation shaker at 200 rpm and 37° C., overnight.

[2] = system: S. aureus; assay: MIC determination by serial dilution in LB broth; assay type: cell-based, S. aureus (ATCC 25923); conditions: Staphylococcus aureus, Table 5, 24 h, 37° C.
Excerpt: as §1, §2

[3] = system: MRSA; assay: MIC determination by serial dilution in LB broth; assay type: cell-based, methicillin-resistant Staphylococcus aureus (ATCC 43300); conditions: Staphylococcus aureus, read-out: MIC MRSA
Excerpt: as §1
as §2, with “overnight. […] MIC was determined with no visible growth at 600 nm by spectrophotometer. […]” for “overnight.”

[4] = system: E. coli; assay: MBC determination; assay type: cell-based, E. coli (ATCC 43894); conditions: Escherichia coli, read-out: MBC E. coli
Excerpt: as §1
(§3) The MBC was defined as the lowest concentration of an antibacterial agent that kills bacteria in the planktonic culture. MBC of antibacterial polymers and control were determined against S. aureus and E. coli by the reported method in publication “Antibacterial and Bacterially Antiadhesive Cotton Fabrics Coated by Cationic Fluorinated Polymers. ACS Appl Mater Interfaces 2018, 10 (7), 6124-6136.”

[5] = system: S. aureus; assay: MBC determination; assay type: cell-based, S. aureus (ATCC 25923); conditions: Staphylococcus aureus; Table 5
Excerpt: as §1, §3

[6] = system: MRSA; assay: MBC determination; assay type: cell-based, methicillin-resistant Staphylococcus aureus (ATCC 43300); conditions: Staphylococcus aureus, read-out: MBC MRSA
Excerpt: as §1, §3

Cc1ccc(C(C)C)c(O)c1 [Thymol]
250 µg/mL: MIC [1] | MIC [2] | MIC [3] | MBC [4] | MBC [5] | MBC [6]

Reference: patent US20250268248A1 (priority 2022, published 2025)
